Among the data in ChEMBL document CHEMBL1629509, “Design, synthesis and inhibitory activity against Mycobacterium tuberculosis thymidine monophosphate kinase of acyclic nucleoside analogues with a distal imidazoquinolinone” (Eur J Med Chem, 2010) are Ki, Activity and solubility values, retold here.

The target in data set [1] is T1, Thymidylate kinase (Mycobacterium tuberculosis, UniProt P9WKE1).
T1 sequence (P9WKE1 whole entry): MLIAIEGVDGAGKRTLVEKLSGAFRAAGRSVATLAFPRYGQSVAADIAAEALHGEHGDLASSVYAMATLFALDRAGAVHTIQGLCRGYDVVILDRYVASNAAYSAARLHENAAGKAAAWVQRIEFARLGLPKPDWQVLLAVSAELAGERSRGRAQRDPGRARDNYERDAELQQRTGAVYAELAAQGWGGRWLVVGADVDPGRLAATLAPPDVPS
The data set is described as follows: Inhibition of Mycobacterium tuberculosis Thymidine monophosphate kinase by spectrophotometry.

Data set [2] concerns Mycolicibacterium smegmatis. The data set is described as follows: Antimycobacterial activity against Mycobacterium smegmatis mc2155 assessed as growth inhibition at 160 ug/ml by resazurin microtiter plate assay. It counts as functional, organism-based. On the technique in general: Resazurin is reduced to fluorescent resorufin, in cell work by metabolically active cells.
Data set [3] is described as follows: Solubility of the compound in water. In kind it is physicochemical.

In brackets after ≈: the same amount, converted by molar mass. Activity calls are given as the source filed them. The rule behind the calls is not given here.

Take `Cc1cn(C/C=C/CN2c3cccc4cccc(c34)S2(=O)=O)c(=O)[nH]c1=O`: the Ki in data set [1] is 270 nM.
In data set [1], `CC(=O)NC1Cc2cccc3c2n(c(=O)n3C/C=C/Cn2cc(C)c(=O)[nH]c2=O)C1` (stereo not drawn) had a Ki of 5800 nM. Besides, in data set [2], the result was inactive.
Turning to `Cc1cn(C/C=C/CN2c3cccc4c3N(CCC4)S2(=O)=O)c(=O)[nH]c1=O`, in data set [1], the Ki was 570 nM. Besides, the outcome in data set [2] was inactive.
Turning to `Cc1cn(C/C=C/CN2C(=O)c3cccc4cccc2c34)c(=O)[nH]c1=O`, in data set [1], the Ki was 420 nM. In data set [3], the solubility is 640 µg/mL (≈ 1840 µM).
Consider `Cc1cn(C/C=C/Cn2c(=O)n3c4c(cccc42)CC(N)C3)c(=O)[nH]c1=O` (stereo not drawn), for which the Ki in data set [1] came to 7070 nM. The outcome in data set [2] was inactive.
Regarding `Cc1cn(C/C=C/Cn2c(=O)n3c4c(cc(N)cc42)CCC3)c(=O)[nH]c1=O`, in data set [1], the Ki amounted to 2460 nM. Further, the outcome in data set [2] was inactive.
In data set [1], `O=c1[nH]c(=O)n(C/C=C/CN2c3cccc4c3N(CCC4)S2(=O)=O)cc1Br` returned a Ki of 300 nM. In data set [2], the result was inactive.
Turning to `Cc1cn(C/C=C/Cn2c(=O)n3c4c(cccc42)CCC3)c(=O)[nH]c1=O`, the Ki in data set [1] came out at 1160 nM. The result in data set [2] was inactive.
The compound `Cc1cn([C@H]2C[C@H](O)[C@@H](COP(=O)(O)O)O2)c(=O)[nH]c1=O` [THYMIDINE MONOPHOSPHATE] came in with a Ki in data set [1] of 4500 nM.
In data set [1], `CC(=O)Nc1cc2c3c(c1)n(C/C=C/Cn1cc(C)c(=O)[nH]c1=O)c(=O)n3CCC2` yielded a Ki of 930 nM. Besides, the result in data set [2] was inactive.

Usually Ki stands for the equilibrium dissociation constant of an inhibitor or competing ligand from its target. A lower Ki goes with higher affinity. The solubility is the concentration that dissolves in the medium under given conditions.
